Measurements from PubChem BioAssay AID296 (DTP/NCI, 2004).
Values joined by “and” are separate entries in the source; they are usually repeats but may differ in a detail not shown here. Equal values may be shown once. Records with an inconclusive call do not appear.

Test system: MX-1 breast xenograft, nude mice, tumor weight T/C
Assay: NCI In Vivo Anticancer Drug Screen. Data for tumor model Human Mammary Carcinoma MX-1 Xenograft (intrarenal inoculation) in NU/NU Swiss (nude) mice
Details: endpoint: mean tumor weight change, higher = larger tumour
How it was run: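 Tumor-bearing mice were treated with test compound alongside a vehicle-treated control group. Survival or tumor size was measured, and activity is expressed as the treated-group value divided by the control-group value.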

[1] = dose: 2400.0 mg/kg/injection, schedule: Q04DX003 (sc), vehicle: Klucel (hydroxypropylcellulose) (HPC)
[2] = dose: 9.38 mg/kg/injection, schedule: Q04DX003 (sc), vehicle: saline
[3] = dose: 18.75 mg/kg/injection, schedule: Q04DX003 (sc), vehicle: saline
[4] = dose: 300.0 mg/kg/injection, schedule: Q04DX003 (sc), vehicle: saline with Tween-80
[5] = dose: 600.0 mg/kg/injection, schedule: Q04DX003 (sc), vehicle: saline with Tween-80
[6] = dose: 1200.0 mg/kg/injection, schedule: Q04DX003 (sc), vehicle: saline with Tween-80
[7] = dose: 150.0 mg/kg/injection, schedule: Q04DX003 (sc), vehicle: saline with Tween-80

Q: Which results are given for `CC[C@@H](C)[C@@H]1NC(=O)C(NC(=O)C(CC(C)C)N(C)C(=O)C2CCCN2C(=O)C(C)O)C(C)OC(=O)C(Cc2ccc(OC)cc2)N(C)C(=O)C2CCCN2C(=O)C(CC(C)C)NC(=O)C(C)C(=O)C(C(C)C)OC(=O)C[C@H]1O` (stereo partly specified)?
A: T/C (dose: 300.0 micrograms/kg/injection, schedule: Q04DX003 (sc), vehicle: distilled water + alcohol): 91 % of control; T/C (dose: 600.0 micrograms/kg/injection, schedule: Q04DX003 (sc), vehicle: distilled water + alcohol): 157 % of control; T/C (dose: 1200.0 micrograms/kg/injection, schedule: Q04DX003 (sc), vehicle: distilled water + alcohol): 27 % of control

Q: Which T/C (dose: 4.0 mg/kg/injection, schedule: Q04DX003 (sc), vehicle: water) does the source give for `C[n+]1c(-c2cccc(OCCOCCOc3cccc(-c4c5cc(N)ccc5c5ccc(N)cc5[n+]4C)c3)c2)c2cc(N)ccc2c2ccc(N)cc21` here?
A: 92 % of control

Q: What about the T/C (dose: 64.0 mg/kg/injection, schedule: Q04DX003 (sc), vehicle: water) of the same compound?
A: 73 % of control

Q: Which T/C (dose: 2.0 mg/kg/injection, schedule: Q04DX003 (sc), vehicle: saline) does the source give for `C/C=C(\C)c1cc(=O)c2c(C)cc3c(c2o1)C(=O)c1c(O)c(C2CC(C)(N(C)C)C(O)C(C)O2)cc(C2CC(N(C)C)C(O)C(C)O2)c1C3=O` (stereo unspecified) here?
A: 41 % of control

Q: And the T/C (dose: 4.0 mg/kg/injection, schedule: Q04DX003 (sc), vehicle: saline)?
A: 24 % of control

Q: What about the T/C (dose: 8.0 mg/kg/injection, schedule: Q04DX003 (sc), vehicle: saline) of the same compound?
A: 28 % of control

Q: For `COC1CC(C)C(OC)c2cc(O)cc(c2O)NC(=O)/C(C)=C/C=C\C(C)C(OC(N)=O)/C(C)=C\C(C)C1OC` (stereo unspecified), which T/C (dose: 12.5 mg/kg/injection, schedule: Q04DX003 (sc), vehicle: saline + alcohol) is on record?
A: 103 % of control

Q: What about the T/C (dose: 25.0 mg/kg/injection, schedule: Q04DX003 (sc), vehicle: saline + alcohol) of the same compound?
A: 104 % of control

Q: And the T/C (dose: 50.0 mg/kg/injection, schedule: Q04DX003 (sc), vehicle: saline + alcohol)?
A: 90 % of control

Q: And the T/C (dose: 100.0 mg/kg/injection, schedule: Q04DX003 (sc), vehicle: saline + alcohol)?
A: 109 % of control

Q: `CC1CCC(NC(=O)N(CCCl)N=O)CC1` (stereo unspecified) was tested. Which T/C (dose: 6.25 mg/kg/injection, schedule: Q01DX010 (sc), vehicle: Klucel (hydroxypropylcellulose) (HPC)) did it give?
A: 74 % of control

Q: And the T/C (dose: 12.5 mg/kg/injection, schedule: Q01DX010 (sc), vehicle: Klucel (hydroxypropylcellulose) (HPC))?
A: 78 % of control

Q: With `CC1=CC(=Nc2ccc(N(CCCl)CCCl)cc2)C=C(C)C1=O` as the compound, how does the T/C (dose: 150.0 mg/kg/injection, schedule: Q04DX003 (sc), vehicle: Klucel (hydroxypropylcellulose) (HPC)) read?
A: 34 % of control

Q: What about the T/C [1] of the same compound?
A: -89 % of control

Q: What does the source list for `C=C1C(=O)C2=CC1CCC(=O)C1(C)CCC(OC(C)=O)C(C)(C)C1CC2O` (stereo unspecified)?
A: T/C (dose: 30.0 mg/kg/injection, schedule: Q04DX003 (sc), vehicle: Klucel (hydroxypropylcellulose) (HPC)): 107 % of control; T/C (dose: 60.0 mg/kg/injection, schedule: Q04DX003 (sc), vehicle: Klucel (hydroxypropylcellulose) (HPC)): 69 % of control; T/C (dose: 120.0 mg/kg/injection, schedule: Q04DX003 (sc), vehicle: Klucel (hydroxypropylcellulose) (HPC)): 42 % of control

Q: What does the source list for `Cc1ncc(CNC(=O)N(CCCl)N=O)c(N)n1`?
A: T/C [2]: 43 % of control; T/C [3]: 28 % of control

Q: Which T/C (dose: 100.0 mg/kg/injection, schedule: Q04DX003 (sc), vehicle: distilled water + Tween-80) does the source give for `CNC(=O)OCc1c(COC(=O)NC)c(-c2ccccc2)n(C)c1-c1ccccc1` here?
A: 121 % of control

Q: What about the T/C (dose: 200.0 mg/kg/injection, schedule: Q04DX003 (sc), vehicle: distilled water + Tween-80) of the same compound?
A: 51 % of control

Q: And the T/C (dose: 400.0 mg/kg/injection, schedule: Q04DX003 (sc), vehicle: distilled water + Tween-80)?
A: 78 % of control

Q: What about the T/C (dose: 800.0 mg/kg/injection, schedule: Q04DX003 (sc), vehicle: distilled water + Tween-80) of the same compound?
A: 74 % of control

Q: Which results are given for `O=C1C2(Cl)C3(Cl)C4(Cl)C(Cl)(Cl)C5(Cl)[C@]3(Cl)C1(Cl)[C@]5(Cl)C24Cl` (stereo partly specified)?
A: T/C (dose: 37.5 mg/kg/injection, schedule: Q04DX003 (sc), vehicle: Klucel (hydroxypropylcellulose) (HPC)): 120 % of control; T/C (dose: 75.0 mg/kg/injection, schedule: Q04DX003 (sc), vehicle: Klucel (hydroxypropylcellulose) (HPC)): 121 % of control

Q: For `CC(=O)OCc1cc(=O)n(C)c2c3c4c(cc12)c(C)cc(=O)n4CO3`, which T/C (dose: 50.0 mg/kg/injection, schedule: Q01DX010 (sc), vehicle: Klucel (hydroxypropylcellulose) (HPC)) is on record?
A: 120 % of control

Q: What about the T/C (dose: 100.0 mg/kg/injection, schedule: Q01DX010 (sc), vehicle: Klucel (hydroxypropylcellulose) (HPC)) of the same compound?
A: 92 % of control

Q: Which T/C (dose: 600.0 mg/kg/injection, schedule: Q04DX003 (sc), vehicle: Klucel (hydroxypropylcellulose) (HPC)) does the source give for `O=c1[nH]c(=O)n(C2CC(O)C(CO)O2)cc1Br` (stereo unspecified) here?
A: 91 % of control

Q: And the T/C (dose: 1200.0 mg/kg/injection, schedule: Q04DX003 (sc), vehicle: Klucel (hydroxypropylcellulose) (HPC))?
A: 80 % of control

Q: And the T/C [1]?
A: 59 % of control

Q: And the T/C (dose: 4800.0 mg/kg/injection, schedule: Q04DX003 (sc), vehicle: Klucel (hydroxypropylcellulose) (HPC))?
A: 27 % of control

Q: With `Cc1c2cc[n+](CCN3CCCCC3)cc2c(C)c2c1[nH]c1ccc(O)cc12` as the compound, how does the T/C (dose: 25.0 mg/kg/injection, schedule: Q04DX003 (sc), vehicle: suspension in saline) read?
A: 159 % of control

Q: And the T/C (dose: 50.0 mg/kg/injection, schedule: Q04DX003 (sc), vehicle: suspension in saline)?
A: 163 % of control

Q: What about the T/C (dose: 100.0 mg/kg/injection, schedule: Q04DX003 (sc), vehicle: suspension in saline) of the same compound?
A: 159 % of control

Q: With `CC1=C(O)C(=O)[C@@H]2O[C@@H]2C1=O` as the compound, how does the T/C (dose: 2.35 mg/kg/injection, schedule: Q04DX003 (sc), vehicle: saline) read?
A: 86 % of control

Q: And the T/C (dose: 4.69 mg/kg/injection, schedule: Q04DX003 (sc), vehicle: saline)?
A: 82 % of control

Q: What about the T/C [2] of the same compound?
A: 119 % of control

Q: And the T/C [3]?
A: 63 % of control

Q: How did the T/C (dose: 300.0 mg/kg/injection, schedule: Q04DX003 (sc), vehicle: saline) turn out when `O=c1[nH]c(=O)n(C2CC(O)C(CO)O2)cc1C(F)(F)F` (stereo unspecified) was run?
A: 77 % of control

Q: What about the T/C (dose: 600.0 mg/kg/injection, schedule: Q04DX003 (sc), vehicle: saline) of the same compound?
A: 72 % of control

Q: What about the T/C (dose: 1200.0 mg/kg/injection, schedule: Q04DX003 (sc), vehicle: saline) of the same compound?
A: 43 % of control

Q: And the T/C (dose: 2400.0 mg/kg/injection, schedule: Q04DX003 (sc), vehicle: saline)?
A: 29 % of control

Q: How did the T/C [4] turn out when `Nc1ccc2c(c1)CN1C(=O)c3ccccc3C1=N2` was run?
A: 203 % of control

Q: What about the T/C [5] of the same compound?
A: 168 % of control

Q: What about the T/C [6] of the same compound?
A: 76 % of control

Q: Which T/C (dose: 20.0 mg/kg/injection, schedule: Q01DX010 (sc), vehicle: saline) does the source give for `c1cc[c]([Sn][c]2ccccc2)cc1` here?
A: 112 % of control

Q: And the T/C (dose: 40.0 mg/kg/injection, schedule: Q01DX010 (sc), vehicle: saline)?
A: 84 % of control

Q: And the T/C (dose: 80.0 mg/kg/injection, schedule: Q01DX010 (sc), vehicle: saline)?
A: 74 % of control

Q: And the T/C (dose: 160.0 mg/kg/injection, schedule: Q01DX010 (sc), vehicle: saline)?
A: 115 % of control

Q: Which T/C [7] does the source give for `CC1=C(/C=C/C(C)=C/C=C/C(C)=C/C=O)C(C)(C)CCC1` here?
A: 88 % of control

Q: And the T/C [4]?
A: 98 % of control

Q: And the T/C [6]?
A: 53 % of control

Q: Which T/C [4] does the source give for `OCC1OC(n2cnc3cc(Cl)c(Cl)cc32)C(O)C1O` (stereo unspecified) here?
A: 156 % of control

Q: What about the T/C [5] of the same compound?
A: 114 % of control and 118 % of control

Q: And the T/C [6]?
A: 114 % of control

Q: What about the T/C (dose: 2400.0 mg/kg/injection, schedule: Q04DX003 (sc), vehicle: saline with Tween-80) of the same compound?
A: 66 % of control

Q: How did the T/C (dose: 75.0 mg/kg/injection, schedule: Q04DX003 (sc), vehicle: saline with Tween-80) turn out when `Cc1cc(=O)n2c3c(c4c(cc13)c(CN(C)C)cc(=O)n4C)OC2` was run?
A: 109 % of control

Q: And the T/C [7]?
A: 151 % of control

Q: What about the T/C [4] of the same compound?
A: 80 % of control
